Data on two compounds can be found in patent US10391080B2, “Ketorolac for the treatment of cancer” (Cipla Limited, priority 2016, dated 2019).

In one assay the test system is Par-4. Particulars: mouse embryonic fibroblast (MEF) cells; cited from earlier work.
In assay [1] the test system is tumor cell lines of renal cancer. The assay is described as follows: In vitro 3D combination study, clonogenic assay, both cell lines. It is filed as cell-based. Particulars: Homo sapiens, A498; compound alone, colony formation in soft agar, range over RXF 1183L and RXF A-498; read-out: Relative IC50, single agent. Here is the method: The objective of this study was to assess anti-tumor efficacy of ketorolac in combination with sunitinib in a 5×5 matrix combination format against tumor cell lines of renal cancer using a clonogenic assay with image analysis as read-out.
The clonogenic assay was carried out in a 96 well plate format using ultra low attachment plates. For each test cells were prepared as described above, and assay plates were prepared as follows: each test well contained a layer of semi-solid medium with tumor cells (50 μl), and a second layer of medium supernatant with or without test compounds (100 μl). The cell layer consisted of 3×10^3 to 1×10^4 tumor cells per well, which were seeded in 50 μl/well cell culture medium (IMDM, supplemented with 20% (v/v) fetal calf serum, 0.01% (w/v) gentamicin, and 0.4% (w/v) agar). The soft agar layer was immediately covered with 90 μl of the same culture medium without agar. After 24 h the test compounds were added after serial dilution in IMDM and transfer in cell culture medium, and left on the cells for the duration of the experiment (continuous exposure, 100 μL total drug overlay). Every plate included six untreated control wells and drug-treated groups in a layout as shown above. […] At the time of maximum colony formation, counts were performed with an automatic image analysis system (Celllnsight NXT, Thermo Scientific). […]

Another assay deals with A498 cells. The assay is described as follows: In vivo animal efficacy study, subcutaneous A498 tumor fragments. More on the design: species or system female athymic nude mice. Particulars: for Mean Tumor Volume / Tumor Growth Inhibition (% TGI): Sunitinib 20 mg/kg p.o. q.d. × 21 (G2). On the procedure: 10 Healthy female athymic nude mice were recruited for the donor cell inoculation. Animals were subcutaneously injected at flank region with 10 million A498 cells suspended in 200 μl of media and matrigel. Animals were monitored for solid tumor growth. […] Tumors were fragmented in to ˜30 mg size. […] [table] The tumor sizes were measured weekly twice from the date of tumor appearance till the end of the experiment. Tumor size was measured by digital vernier caliper (MITUTOYO) by measuring length (L=longest axis) and width (W=shortest axis). Tumor Volume was calculated using the formula: […] Form the tumor volume data mean tumor volume and % tumor growth inhibition (% TGI) were calculated (SEM=standard error of mean).

`COc1ccc(C2=N[C@@H](c3ccc(Cl)cc3)[C@@H](c3ccc(Cl)cc3)N2C(=O)N2CCNC(=O)C2)c(OC(C)C)c1` [Nutlin-3a]: in the assay on Par-4, the PAR-4 secretion entry is reported as “stimulated PAR-4 secretion at micromolar levels”.

With `CCN(CC)CCNC(=O)c1c(C)[nH]c(/C=C2\C(=O)Nc3ccc(F)cc32)c1C` [Sunitinib], in assay [1], the IC50 – broadly, the concentration needed to halve the response being measured – was in the range of 1.5 to 4.59 µM. The “Mean Tumor Volume” value with A498 cells (day 1) amounted to 145.40 mm^3; with A498 cells (day 6), 174.90 mm^3; in the assay on A498 cells (day 9) it was 261.95 mm^3; in the assay with A498 cells (day 13), 340.62 mm^3; in the assay with A498 cells (day 16), 448.05 mm^3; in the assay on A498 cells (day 20), 630.25 mm^3. The “Tumor Growth Inhibition (% TGI)” value is listed as 1.47% in the assay with A498 cells (day 1); 47.31% with A498 cells (day 6); 43.52% with A498 cells (day 9); 44.80% in the assay with A498 cells (day 13); 53.39% in the assay with A498 cells (day 16); 50.78% in the assay on A498 cells (day 20). In the assay on A498 cells (Sunitinib alone at a dose of 20 mg/kg), the Maximum tumor inhibition was determined as 51%.
